Experimental data taken from PMC12040169 (PLOS Biology, 2025).

Assay: in vitro
Details: human, hela cells, % viability

SMILES | viability at 28.5 h, 10 µM [%]
COCCn1c(=O)n(Cc2ccccc2F)c2cccnc21 [CBK283965] | 88.6
Clc1ccccc1CN1CCC(n2cnc3cccnc32)CC1 [CBK283967] | 105
c1csc(CN2CCC(n3cnc4cccnc43)CC2)c1 [CBK283968] | 101
Cc1nc2c(c(=O)[nH]1)CCN(Cc1ccc(-c3ccccc3)cc1)C2 [CBK283970] | 94.4
Cc1csc(NC(=O)c2ncoc2-c2cccs2)n1 [CBK283972] | 88.2
O=C(NCc1cccnc1)c1ncoc1-c1cccs1 [CBK283974] | 87.5
O=C(Nc1nccs1)c1ncoc1-c1cccs1 [CBK283975] | 102
O=C(NCc1ccc(F)cc1)c1ncoc1-c1cccs1 [CBK283976] | 91.7
Cc1cnc(NC(=O)c2ncoc2-c2cccs2)s1 [CBK283977] | 102
Cc1c(C(=O)NC2(c3ccc(F)cc3)CCCC2)cnn1C [CBK283978] | 90.9
CCn1c(N2CCC(C(=O)NC(C)C)CC2)nc2ccccc21 [CBK283982] | 83.8
CCn1c(N2CCC(C(=O)NCC3CC3)CC2)nc2ccccc21 [CBK283983] | 104
Cn1c(CNC(=O)c2ncoc2-c2cccs2)nc2ccccc21 [CBK283985] | 78.6
CC(C)NC(=O)C1CCN(c2nc3ccccc3n2C)CC1 [CBK283986] | 87.5
Cc1nc2c(c(=O)[nH]1)CCN(Cc1cn(C(C)C)c3ccccc13)C2 [CBK283991] | 105
C=CCn1cc(CN2CCc3c(nc(C)[nH]c3=O)C2)c2ccccc21 [CBK283992] | 97.5
CCc1cccc2c(CN3CCc4c(nc(C)[nH]c4=O)C3)c[nH]c12 [CBK283993] | 94.6
Cc1nc2c(c(=O)[nH]1)CCN(Cc1[nH]c3ccccc3c1C)C2 [CBK283995] | 93
Cc1nc2c(c(=O)[nH]1)CCN(Cc1[nH]c3ccc(F)cc3c1C)C2 [CBK283996] | 89.4
O=C1NC2(CCN(C(=O)c3ccccc3F)CC2)Oc2ccccc21 [CBK283997] | 81.9
O=C1NC2(CCN(C(=O)c3cccs3)CC2)Oc2ccccc21 [CBK283998] | 87.3
O=C(C1CC1)N1CCC2(CC1)Nc1ccccc1-n1cccc12 [CBK284011] | 91.5
Cc1nc2c(c(=O)[nH]1)CN(Cc1cn(C(C)C)c3ccccc13)CC2 [CBK284014] | 93.5

SMILES | viability at 28.5 h, 10 µM [%]
CCN(CC)C(=O)Cn1c(=O)n(Cc2ccco2)c2ncccc21 [CBK284016] | 109
Cc1nn(CC(=O)OC(C)C)c(=O)c2cc3sccc3n12 [CBK284022] | 93.7
Cc1nn(CC(=O)NC2CCCC2)c(=O)c2cc3sccc3n12 [CBK284023] | 104
Cc1nn(CC(=O)NCC2CC2)c(=O)c2cc3sccc3n12 [CBK284025] | 94.5
Cc1nn(CC(=O)NC2CC2)c(=O)c2cc3ccsc3n12 [CBK284026] | 92.3
CCc1nn(CC(=O)NC2CC2)c(=O)c2cc3sccc3n12 [CBK284029] | 88.7
CCc1nn(CC(=O)N(C)C)c(=O)c2cc3sccc3n12 [CBK284031] | 91.3
O=C(c1ccccn1)N1C2CCC1CC(O)(c1ccco1)C2 (stereo not shown) [CBK284034] | 87
O=C(C1CCCO1)N1C2CCC1CC(O)(c1ccco1)C2 (stereo not shown) [CBK284035] | 83
Cc1cc2nccc(C3CCCN(C(=O)OC(C)(C)C)C3)n2n1 (stereo not shown) [CBK284037] | 90.8
CC(C)C(=O)N1CCCC(n2nc(-c3cccs3)ccc2=O)C1 (stereo not shown) [CBK284038] | 92.3
Cc1nn(CC(=O)N2CCCCC2)c(=O)c2cc3sccc3n12 [CBK284040] | 93.6
Cc1nn(CC(=O)N2CCCC(C)C2)c(=O)c2cc3ccsc3n12 (stereo not shown) [CBK284041] | 81.7
Cc1nn(CC(=O)OC2CCCCC2)c(=O)c2cc3sccc3n12 [CBK284045] | 80.8
Cc1nn(CC(=O)N2CCCC(C)C2)c(=O)c2cc3sccc3n12 (stereo not shown) [CBK284046] | 87.7
Cn1ccnc1C1(O)CC2CCC(C1)N2C(=O)NC1CCCCC1 (stereo not shown) [CBK284049] | 88.5
Cn1ccnc1C1(O)CC2CCC(C1)N2C(=O)NCc1ccccc1 (stereo not shown) [CBK284050] | 81.3
Cn1ccnc1C1(O)CC2CCC(C1)N2C(=O)Nc1ccc(F)cc1 (stereo not shown) [CBK284051] | 85.7
COc1cccc(CC(=O)N2C3CCC2CC(O)(c2ccco2)C3)c1 (stereo not shown) [CBK284053] | 80.5
CCc1nn(CC(=O)NCC2CC2)c(=O)c2cc3sccc3n12 [CBK284055] | 90.5
Cc1nn(CC(=O)N2CCCC2)c(=O)c2cc3ccsc3n12 [CBK284057] | 88.7
O=C(CN1C2CCC1CC(O)(c1ccco1)C2)Nc1ccc(F)cc1 (stereo not shown) [CBK284062] | 87.6
Cc1cc2c(cc3c(=O)n(CC(=O)N4CCCCC4)nc(C)n32)s1 [CBK284063] | 95.3
